Paper PMC8587101, “Design and Synthesis of Novel Betulin Derivatives Containing Thio-/Semicarbazone Moieties as Apoptotic Inducers through Mitochindria-Related Pathways” (Molecules, 2021)
Several values for one entry are separate records, joined by “and”; a condition that tells them apart may be missing. Identical values can stand only once. Entries after “also recorded” stand apart in the source; their conditions may differ. Like-named read-outs stand apart in the source and are kept apart here.

Legend:
MCF-7 cells [1] = assay: Mitochondrial membrane potential (MMP) assay, JC-1, flow cytometry; format: cell-based, human; settings: 24 h
Protocol: Mitochondria dysfunction has been proven to be an important role in inducing apoptosis in tumor cells. The loss of mitochondrial membrane potential (MMP) has been considered to be an early manifestation of mitochondrial dysfunction in apoptotic process. Thus, we tried to explore the contribution of mitochondria in compound-8f-induced apoptosis in MCF-7 cells. JC-1 cationic dye is an ideal MMP-sensitive probe, which can measure the MMP lost by flow cytometry.
MCF-7 cells were cultured into 12-well plates at a concentration of 1 × 10^6 cells/well of the RPMI-1640 medium. Then, cells were co-cultured with compound 8f (0, 3, 6 and 12 µM) for 24 h. After treatment, cells were stained with 3 µM cationic dye JC-1 at room temperature in the dark for 30 min according to the manufacturer’s instructions (BD Biosciences, San Jose, CA, USA). Finally, cells were harvested and washed with PBS twice, and then the results were recorded by flow cytometry analysis.

MCF-7 cells [2] = assay: Western blot of apoptosis-related proteins; format: cell-based, human; settings: MCF-7, 3, 6 and 12 µM, 24 h, GAPDH internal control
Protocol: To further explore the molecular mechanism of compound-8f-induced apoptosis in MCF-7 cells, the expression levels of the related apoptotic proteins Bcl-2, Bax, P53, caspase-3, caspase-9, cleaved caspase-3, cleaved caspase-9 and cytochrome c under treatment of compound 8f were carried out. MCF-7 cells were co-cultured with compound 8f at the gradient concentrations of 3, 6 and 12 µM for 24 h, and the related apoptotic proteins expression levels were tested by means of Western blotting. The GAPDH expression level was used as an internal control group. […] Meanwhile, the cleavage forms of the caspase proteins were evaluated (Figure 10). Compound 8f could also activated the expression levels of both cleaved caspase-3 and cleaved caspase-9 in a dose-dependent manner.
After treatment with compound 8f (0, 3, 6 and 12 µM), MCF-7 cells were harvested and lysed in RIPA buffer and boiled for 10 min at 100 °C. Equal amount of protein ([…]) were separated on a 10% SDS-PAGE gel and transferred to nitrocellulose membranes. The membranes were blocked with 5% BSA and probed with a 1:1000 dilution of primary antibody against Cl-caspase-3 (Cell Singaling Technology, Inc., Danvers, MA, USA), Cl-caspase-9 (Cell Singaling Technology Inc), P53 (Cell Singaling Technology, Inc; Danvers, MA, USA), Bcl-2 (Santa Cruz Biotechnology, Inc; Santa Cruz, CA, USA), Cytochrome c (Proteintech Group, Inc; Rosemont, IL, USA) and Bax (Proteintech Group, Inc; Rosemont, IL, USA). Then, the membranes were incubated with a 1:5000 dilution of horseradish peroxidase-conjugated secondary antibody for 2 h. Positive bands were visualized on a X-ray film using an enhanced chemiluminescence system (Kodak).

[3] = system: human colorectal cells (HCT-116); assay: MTT cytotoxicity assay, HCT-116; format: cell-based; settings: HCT-116, MTT, 48 h, means ± SD of three experiments, read-out: IC50 (μM) HCT-116
MCF-7 cells [4] = assay: Annexin V-FITC/PI apoptosis analysis by flow cytometry; format: cell-based, human; settings: 24 h, control 10.54%
Protocol: In order to confirm whether tumor cell apoptosis was induced by compound 8f in tumor cells, the MCF-7 cells were stained in sequence with Annexin V-FITC (AV) and propidium iodide (PI). MCF-7 cells deal with compound 8f by gradient concentration (0, 3, 6 and 12 μM) for 24 h, and the rates of apoptotic cells were detected by flow cytometry.
Apoptosis was determined by staining cells with an Annexin VFITC/PI detection kit (BD Biosciences, San Jose, CA, USA). Briefly, MCF-7 cells were seeded on six-well plates (6 × 10^4 cells/mL) and incubated with compound 8f (0, 3, 6 and 12 μM) for 24 h. Cells were washed twice with cold PBS and resuspended in 500 μL of 1 × binding buffer, and then 10 μL of Annexin V-FITC and 5 μL of PI were applied to stain the cells for 15 min at room temperature in the dark. The status of stained cells was analyzed using a flow cytometer (BD, FACSCalibur, San Jose, CA, USA).

[5] = system: human breast carcinoma cells (MCF-7); assay: MTT cytotoxicity assay, MCF-7; format: cell-based; settings: for IC50: MTT, 48 h, means ± SD of three experiments, read-out: IC50 (μM) MCF-7
[6] = system: human lung carcinoma cells (A549); assay: MTT cytotoxicity assay, A549; format: cell-based; settings: A549, MTT, 48 h, means ± SD of three experiments, read-out: IC50 (μM) A549
MCF-7 cells [7] = assay: AO/EB staining, fluorescence microscope; format: cell-based, human; settings: MCF-7, 0, 3, 6 and 12 μM, 24 h
Protocol: Firstly, the Acridine Orange/Ethidium Bromide (AO/EB) staining of MCF-7 cells treated with compound 8f was observed under a fluorescence microscope. A large number of normal cells in the control group were stained green and their nuclei were intact.
The MCF-7 cells in the logarithmic growth phase were cultured into 6-well plates (5 × 10^4 cells/mL). The cells incubated for overnight at 37 °C in an atmosphere of 5% CO2. Then the MCF-7 cells were treated with compound 8f (0, 3, 6 and 12 μM) for 24 h. The cover slip with monolayer MCF-7 cells was inverted on the glass slide with 20 μL of AO/BE stain (100 μg/mL). The fluorescence intensity was read using a fluorescence microscope (Zeiss, Oberserve A1, Oberkochen, Germany).

MCF-7 cells [8] = assay: ROS level assay, H2DCFDA, flow cytometry; format: cell-based, human; settings: MCF-7, 12 μM, 24 h; control group 2.61%
Protocol: In the past years, many studies reported that intracellular amounts of reactive oxygen species (ROS) play an important role in some kinds of biological processes in tumor cells. […] Therefore, we explored if ROS stimulated by compound 8f induced apoptosis in MCF-7 cells. Cells were treated with compound 8f by gradient concentration (0, 3, 6 and 12 μM) for 24 h and then using H2DCFDA staining analysis by flow cytometry.
MCF-7 cells were cultured into 12-well plate at a concentration of 1 × 10^6 cells/well for 24 h of the RPMI-1640 medium with 10% FBS. Then, cells were co-cultured with compound 8f (0, 3, 6 and 12 µM) for 24 h. Then, the MCF-7 cells were stained with 5 µM H2DCFDA solution (400 µL/well) at room temperature in the dark for 30 min. The cells were harvested and washed with PBS twice according to the manufacturer’s instructions (Thermo Fisher Scientific, Waltham, MA, USA). The results were obtained by flow cytometry.

[9] = system: normal human gastric epithelial cells (GES-1); assay: MTT cytotoxicity assay, GES-1 normal cells; format: cell-based; settings: GES1, MTT, 48 h, normal cells, means ± SD of three experiments, “-” not active, read-out: IC50 (μM) GES-1

## C=C(C)[C@@H]1CC[C@]2(/C=N/NC(=S)Nc3cccc(Cl)c3)CC[C@]3(C)[C@H](CC[C@@H]4[C@@]5(C)CC[C@H](O)C(C)(C)[C@@H]5CC[C@]43C)[C@@H]12 [Compound 8f, Lup-20(29)-ene-3β-ol-28-N-(3-chlorophenyl)thiosemicarbazide]
MCF-7 cells [1]; MCF-7, 3 μM
  JC-1 fluorescence intensity (upper quadrant): 79.00%
MCF-7 cells [1]; MCF-7, 12 μM
  JC-1 fluorescence intensity (upper quadrant): 47.06%
MCF-7 cells [2]
  expression level of Bax: upregulation; also recorded: increased
  expression level of Bcl-2: downregulation; also recorded: suppressed
  expression level of P53: upregulation; also recorded: increased
  expression level of caspase-3: activation; also recorded: activated
  expression level of caspase-9: activation; also recorded: activated
  expression level of cleaved caspase-3: activation; also recorded: activated
  expression level of cleaved caspase-9: activation; also recorded: activated
  expression level of cytochrome c (cyt-c): upregulation; also recorded: increased
[3]
  IC50: 24.7 ± 0.9 µM
MCF-7 cells [4]; MCF-7, 3 μM
  percentage of apoptosis cells: 13.20%
MCF-7 cells [4]; MCF-7, 12 μM
  percentage of apoptosis cells: 48.66%
[5]; Homo sapiens, MCF7, 48 h
  IC50: < 10 µM
[5]; MCF-7, ratio of IC50 values
  fold more potent than betulin: 3.32 fold
[5]
  IC50: 5.96 µM and 5.86 µM
[6]
  IC50: 10.4 ± 0.74 µM
MCF-7 cells [7]
  AO/EB staining, cell morphology: some cells showed apoptotic characteristics
MCF-7 cells [8]
  generation of ROS level: 75.22%
[9]
  IC50: 215 ± 6.28 µM
